Laboratory results from patent US20070185122A1, “Use of efletirizine for treating persistent allergic rhinitis” (priority 2003, published 2007).

What was measured:
[1] = tested on: persistent allergic rhinitis; assay: clinical study of efletirizine dihydrochloride in persistent allergic rhinitis (T5SS, RQLQ, SF-36), placebo-controlled; type: in vivo, adult patients; settings: patients with persistent allergic rhinitis
From the text: A study relative to the clinical effect of efletirizine dihydrochloride is planed to establish on the intention to treat (ITT population) whether an approximately 6 month efletirizine treatment can improve the quality of life and clinical symptoms from adult patients suffering from persistent allergic rhinitis, when compared to placebo.
Secondary parameters of efficacy include different durations of treatment, different symptoms, different quality of life questionnaires, the incidence of co-morbidities suspected to be linked to allergic rhinitis and pharmaco-economic variables. The safety of this long-term treatment with efletirizine is also evaluated.
The target population of this study consists of adults aged more than 18 years suffering from persistent allergic rhinitis [WHO Initiative on Allergic Rhinitis and its Impact on Asthma (ARIA), 2000, pages S147-S149]. To be enrolled, the subjects need to have sufficient rhinitis symptoms during the selection period. Excluded are patients with ENT (Ear-Nose-Throat) or eye infection preceding initial visit. […]
The severity of clinical symptoms is rated by the T5SS (sneezing, rhinorrhea, nasal pruritus, ocular pruritus and nasal congestion) evaluated each by a score from 0 to 3 each day. The impact on health related quality of life is measured using the Rhinoconjunctivitis Quality of Life Questionnaire (RQLQ, SF36) (E. JUNIPER and G. H. GUYATT, Development and testing of a new measure of health status for clinical trials in rhinoconjunctivitis, Clinical and Experimental Allergy 1991; 21:77-83; E. JUNIPER, Measuring Health Related Quality of Life in rhinitis, J. Allergy Clin. Immunol. 1997; 99:S742-9). […]
At each of the visits, diary book entries (T5SS, RQLQ, SF-36, indirect cost pharmaco-economic parameters, concomitant medication, outpatient consultations and adverse events) are verified and transferred into the Clinical Record Form and direct cost pharmaco-economic parameters will be recorded. […]
Adverse events are recorded by the patients on diary cards and discussed with the investigator at each visit. […]

histamine H1-receptor = histamine H1-receptor (Homo sapiens, UniProt P35367); assay: in vitro affinity and selectivity for H1-receptors; type: binding
Chain of histamine H1-receptor (P35367 whole entry, species assumed): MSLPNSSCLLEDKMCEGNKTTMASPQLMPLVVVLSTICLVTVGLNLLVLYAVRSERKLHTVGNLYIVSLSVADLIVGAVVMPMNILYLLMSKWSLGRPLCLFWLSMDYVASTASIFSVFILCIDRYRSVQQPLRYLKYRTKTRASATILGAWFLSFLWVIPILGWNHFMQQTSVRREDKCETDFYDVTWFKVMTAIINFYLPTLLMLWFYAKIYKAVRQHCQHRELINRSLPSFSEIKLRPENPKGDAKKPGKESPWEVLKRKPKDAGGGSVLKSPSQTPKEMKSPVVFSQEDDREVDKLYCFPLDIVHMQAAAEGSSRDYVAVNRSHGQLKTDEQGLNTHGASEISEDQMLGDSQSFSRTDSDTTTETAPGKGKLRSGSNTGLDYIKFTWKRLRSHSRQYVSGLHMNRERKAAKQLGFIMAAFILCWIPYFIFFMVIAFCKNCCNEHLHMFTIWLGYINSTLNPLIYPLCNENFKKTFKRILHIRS

affinity for H1-receptors (histamine H1-receptor) | Compound | duration of effect on persistent rhinitis [1] | duration of effect on quality of life [1] | effect on nasal congestion [1]
 | Cl.Cl.O=C(O)COCCN1CCN(C(c2ccc(F)cc2)c2ccc(F)cc2)CC1 [efletirizine dihydrochloride] | more than 4 weeks | more than 4 weeks | has an effect on nasal congestion
high affinity | O=C(O)COCCN1CCN(C(c2ccc(F)cc2)c2ccc(F)cc2)CC1 [Efletirizine, 2-[2-[4-[Bis(4-fluorophenyl)methyl]-1-piperazinyl]ethoxy]acetic acid] |  |  | 
